The values below come from article PMC10056636, “3-Amino-Substituted Analogues of Fusidic Acid as Membrane-Active Antibacterial Compounds” (Membranes, 2023).

≈ marks a conversion by molar mass, not a printed value. Like-named read-outs stand apart in the source and are kept apart here. Bounds are passed on as bounds.

Data set [1] concerns Staphylococcus aureus (ATCC 43300) (MRSA). Description: Antibacterial whole-cell growth inhibition (MIC, CO-ADD). Particulars: for MIC: S. aureus (MRSA) ATCC 43300, inhibition ≥80%, two replicates (n = 2); for primary screening: antimicrobial activity: S. aureus (MRSA), primary screen at 32 μg/mL. It counts as cell-based. The procedure:
(§1) Antibacterial screening was carried out by the serial dilution method. All bacteria were cultured in the cation-adjusted Mueller Hinton broth (CAMHB) at 37 °C overnight. A sample of each culture was then diluted 40-fold in fresh broth and incubated at 37 °C for 1.5–3 h. The resultant mid-log phase cultures were diluted (CFU/mL measured by OD600) and then added into each well containing a test compound, giving a cell density of 5 × 10^5 CFU/mL and a total volume of 50 µL. All the plates were covered and incubated at 37 °C for 18 h without shaking.
(§2) Inhibition of bacterial growth was determined by measuring the absorbance at 600 nm (OD600) with a Tecan M1000 Pro monochromator plate reader. […]

Data set [2] in a line: in vitro. Particulars: human, CC50. It counts as cell-based, human. The procedure: (§3) HEK293 cells were counted manually in a Neubauer hemocytometer and then plated in 384-well plates containing the test compounds to give a density of 5000 cells per well in a final volume of 50 µL. DMEM supplemented with 10% FBS was used as the growth medium, and the cells were incubated together with the compounds for 20 h at 37 °C in 5% CO2.
(§4) The cytotoxicity (or cell viability) was measured by fluorescence, ex: 560/10 nm, em: 590/10 nm (F560/590), after addition of 5 µL of 25 µg/mL resazurin (2.3 µg/mL final concentration) and after incubation for further 3 h at 37 °C in 5% CO2. The fluorescence intensity was measured using a Tecan M1000 Pro monochromator plate reader with automatic gain control. The CC50 (50% cytotoxicity concentration) values were calculated by curve fitting of inhibition vs. log(concentration) using a sigmoidal dose–response function, with variable fitting values for bottom, top, and slope. In addition, the maximal percentage of cytotoxicity is reported as DMax, indicating any compounds with partial cytotoxicity. The curve fitting was implemented using Pipeline Pilot’s dose–response component. The results were similar to those obtained by other curve-fitting tools, such as GraphPad’s Prism and IDBS’s XlFit. Any value with > indicated samples with no activity (low DMax value) or samples with CC50 values above the maximum tested concentration (higher DMax value).
(§5) In addition, samples were flagged as partially cytotoxic if DMax ≥ 50%, even for CC50 > the maximum tested concentration.
(§6) Tamoxifen served as a positive cytotoxicity standard. Melittin was used as a positive hemolytic standard.

Data set [3] relates to human embryonic kidney cell line HEK293 (ATCC CRL-1573). Description: in vitro. It is filed as cell-based. Particulars: human, 20 h. The procedure:
as §3, §4, §5, §6

Data set [4] in a line: Hemolysis assay. It is filed as cell-based, human. The note with it: human, Dmax (maximal percentage of hemolysis). The procedure:
(§7) Human whole blood was washed three times with 3 volumes of 0.9% NaCl and then resuspended in the same medium to a concentration of 0.5 × 10^8 cells/mL, as determined by manual cell count in a Neubauer hemocytometer. The washed cells were then added to 384-well plates containing the test compounds to a final volume of 50 µL. After shaking on a plate shaker for 10 min, the plates were incubated for 1 h at 37 °C. After incubation, the plates were centrifuged at 1000× g for 10 min to pellet the cells and debris; 25 µL of the supernatant was then transferred to a polystyrene 384-well assay plate.
(§8) Hemolysis was monitored by measuring the supernatant absorbance at […] (OD405). The absorbance was measured using a Tecan M1000 Pro monochromator plate reader. HC10 and HC50 (10% and 50% hemolysis concentrations, respectively) were calculated by curve fitting of inhibition vs. log(concentration) using a sigmoidal dose–response function with variable fitting values for top, bottom, and slope. In addition, the maximal percentage of hemolysis is reported as DMax, indicating any compounds with partial hemolysis. The curve fitting was implemented using Pipeline Pilot’s dose–response component. […] Any value with > indicated sample with no activity (low DMax value) or samples with HC10 values above the maximum tested concentration (higher DMax value).
(§9) In addition, samples were flagged as partially hemolytic if DMax ≥ 50%, even for HC10 > the maximum tested concentration. […]

For data set [5], the system named is human red blood cells. Description: Hemolysis assay. It counts as cell-based. The note with it: human, 1 h. The procedure:
as §7, §8, §9

Data set [6] deals with Cryptococcus neoformans (ATCC 208821). Description: Antifungal growth inhibition (MIC, CO-ADD). Particulars: for MIC: inhibition ≥70%, two replicates per cell; for primary screening: growth inhibition: primary screen at 32 μg/mL.
Description: Antimicrobial, cytotoxicity, and hemolytic activity screening of the synthesized derivatives was carried out in the CO-ADD (The Community for Antimicrobial Drug Discovery) (http://www.co-add.org, accessed on 24 November 2020) and included analysis for antibacterial properties, cytotoxicity, and hemolytic activity.
The hit confirmation test included five bacteria, Escherichia coli (ATCC 25922), Klebsiella pneumoniae (ATCC 700603), Acinetobacter baumannii (ATCC 19606), Pseudomonas aeruginosa (ATCC 27853), and Staphylococcus aureus (ATCC 43300), and two fungi, Candida albicans (ATCC 90028) and Cryptococcus neoformans (ATCC 208821). […] The compounds were also screened for hemolysis of human red blood cells (human whole blood, strain ARCBS 5400 00150).
Samples were prepared in DMSO and water to a final testing concentration of 32 µg/mL or 20 µM (unless otherwise indicated in the data sheet) and serially diluted twofold up to 8 times. Each sample concentration was prepared in 384-well plates: non-binding surface plate (NBS; Corning 3640) for each bacterial/fungal strain, tissue-culture treated (TC-treated; Corning 3712/3764) black for mammalian cell types and polypropylene 384-well plates (PP; Corning 3657) for hemolysis assays. The final DMSO concentration was maintained to a maximum of 0.5%. All sample preparation procedures were performed using liquid-handling robots. All screening was performed as two replica (n = 2), with both replicas on different assay plates, but from single plating and performed in a single screening experiment (microbial incubation). In addition, two values are used as quality controls for individual plates: Z′-Factor [1 − (3* (sd(NegCtrl) + sd(PosCtrl))/(average(PosCtrl)-average(NegCtrl)))] and standard antibiotic controls at different concentrations (>MIC and <MIC).
Fungi strains were cultured for 3 days on yeast extract-peptone dextrose (YPD) agar at 30 °C. A yeast suspension of 1 × 10^6 to 5 × 10^6 CFU/mL (as determined by OD530) was prepared from five colonies. The suspension was subsequently diluted and added to each well containing a test compound, giving a final cell density of fungi suspension of 2.5 × 10^3 CFU/mL and a total volume of 50 µL. All plates were covered and incubated at 35 °C for 36 h without shaking.
The absorbance was measured using a Biotek Multiflo Synergy HTX plate reader. In both cases, the percentage of growth inhibition was calculated for each well, using the negative control (media only) and positive control (fungi without inhibitors) in the same plate. […] In addition, the maximal percentage of growth inhibition is reported as DMax, indicating any compounds with marginal activity.
Fluconazole was used as a positive fungal inhibitor standard for C. albicans and C. neoformans. […] The quality control (QC) of the assays was performed using Z′-factors calculated from the negative (media only) and positive controls (bacterial, fungal, or cell culture without inhibitor) and the standards.
In data set [7] the test system is Acinetobacter baumannii (ATCC 19606). Description: Antibacterial whole-cell growth inhibition (MIC, CO-ADD). Particulars: A. baumannii, two replicates per cell. It is filed as cell-based. The procedure:
as §1, §2

The test system of data set [8] is Escherichia coli (ATCC 25922). Described as above. It is filed as cell-based. The note with it: E. coli, two replicates per cell. The procedure: as §1, §2
Data set [9] deals with Pseudomonas aeruginosa (ATCC 27853). The description is as above. It counts as cell-based. Particulars: P. aeruginosa, two replicates per cell. The procedure: as §1, §2
In data set [10] the test system is Candida albicans (ATCC 90028). Description: Antifungal growth inhibition (MIC, CO-ADD). It counts as cell-based.
Setting [11] is: Staphylococcus aureus, read-out: MIC.
Where [12] appears, read: Cryptococcus neoformans, ATCC208821, C. neoformans.
[13] abbreviates: Acinetobacter baumannii, ATCC19606, read-out: MIC.
[14] abbreviates: Escherichia coli, ATCC25922, read-out: MIC.
Setting [15] is: Pseudomonas aeruginosa, ATCC27853, read-out: MIC.
Setting [16] is: C. albicans, inhibition ≥80%, two replicates per cell.
Setting [17] is: Candida albicans, ATCC90028, C. albicans, inhibition ≥80%, two replicates per cell, read-out: MIC.

As for `COC(=O)/C(CCC=C(C)C)=C1\[C@@H](OC(C)=O)C[C@@]2(C)[C@H]1C[C@@H](O)[C@H]1[C@@]3(C)CC[C@H](NCCN)[C@@H](C)[C@@H]3CC[C@@]12C` [Compound 12], in data set [1], the MIC turned out to be 32 µg/mL (≈ 55.9 µM) and the “primary screening: antimicrobial activity” value was “showed antimicrobial activity”. Besides, the MIC in data set [1] (setting [11]) was determined as 32 µg/mL (≈ 55.9 µM). For the same molecule, the CC50 at 20 h in data set [2] was 7.77 µg/mL (≈ 13.6 µM). In addition, the CC50 in data set [3] is on record as 13.2 µg/mL (≈ 23 µM). This molecule displayed a hemolysis at 1 h in data set [4] of 34.8%. For the same molecule, in data set [5], the “Dmax (maximal percentage of hemolysis)” value is 27.8% and the HC50 is on record as >32 >32 µg/mL. In [6] (C. neoformans), the MIC is reported as 16 µg/mL (≈ 27.9 µM) and the “primary screening: growth inhibition” value is on record as “inhibited the growth”. In data set [6] (setting [12]), this molecule displayed an MIC of 16 µg/mL (≈ 27.9 µM).
In the case of `COC(=O)/C(CCC=C(C)C)=C1\[C@@H](OC(C)=O)C[C@@]2(C)[C@H]1C[C@@H](O)[C@H]1[C@@]3(C)CC[C@H](NCc4ccccc4)[C@@H](C)[C@@H]3CC[C@@]12C` [Compound 18], the MIC in [1] worked out at 16 µg/mL (≈ 25.8 µM); in data set [1] (setting [11]), 16 µg/mL (≈ 25.8 µM); in data set [6] (C. neoformans), 32 µg/mL (≈ 51.6 µM); in data set [6] (setting [12]), 32 µg/mL (≈ 51.6 µM). In addition, the “primary screening: antimicrobial activity” value in [1] is given as “showed antimicrobial activity”. In addition, in data set [2], the CC50 at 20 h was 17.8 µg/mL (≈ 28.7 µM). Also, the CC50 in data set [3] was 17.5 µg/mL (≈ 28.2 µM). Also, in data set [5], the HC50 is on record as >32 >32 µg/mL. Moreover, the “primary screening: growth inhibition” value in [6] (C. neoformans) is on record as “inhibited the growth”.
With `CC(=O)O[C@H]1C[C@@]2(C)[C@@H](C[C@@H](O)[C@H]3[C@@]4(C)CC[C@@H](O)[C@@H](C)[C@@H]4CC[C@@]32C)/C1=C(\CCC=C(C)C)C(=O)O` [Fusidic acid], the MIC in data set [7] was >32 >32 µg/mL; in [7] (setting [13]), > 32 µg/mL; in data set [8], >32 >32 µg/mL; in data set [8] (setting [14]) it was > 32 µg/mL; in data set [9] it was >32 >32 µg/mL; in data set [9] (setting [15]), > 32 µg/mL. In addition, the MIC in [1] was ≤0.25 ≤0.25 µg/mL; in data set [1] (setting [11]) it was ≤ 0.25 µg/mL; in data set [10] (setting [16]), >32 >32 µg/mL; in data set [10] (setting [17]) it was > 32 µg/mL; in [6] (C. neoformans) it was >32 >32 µg/mL; in data set [6] (setting [12]), > 32 µg/mL. The CC50 at 20 h in [2] is > 32 µg/mL. For the same molecule, in data set [3], the CC50 is >32 >32 µg/mL. The same molecule came in with a hemolysis at 1 h in [4] of 10%. The “Dmax (maximal percentage of hemolysis)” value in data set [5] was 9.7%. Also, in data set [5], the HC50 is listed as >32 >32 µg/mL.
As for `CC(=O)O[C@H]1C[C@@]2(C)[C@@H](C[C@@H](O)[C@H]3[C@@]4(C)CC[C@H](NCCCNCCCCNCCCN)[C@@H](C)[C@@H]4CC[C@@]32C)/C1=C(\CCC=C(C)C)C(=O)O` [Compound 21], the MIC in data set [7], in [7] (setting [13]), in data set [8], in data set [8] (setting [14]), in [9] and in [9] (setting [15]) was 32 µg/mL (≈ 45.6 µM) in each case. Further, the MIC was 2 to 8 µg/mL (≈ 2.85 to 11.4 µM) in data set [1] (setting [11]), 32 µg/mL (≈ 45.6 µM) in data set [10] (setting [16]) and 32 µg/mL (≈ 45.6 µM) in data set [10] (setting [17]). In addition, the CC50 at 20 h in [2] worked out at 24.2 µg/mL (≈ 34.5 µM). Moreover, the CC50 in [3] was > 32 µg/mL. This molecule also returned a hemolysis at 1 h in data set [4] of 8.7%. Besides, the “Dmax (maximal percentage of hemolysis)” value in data set [5] amounted to 6.4%. Also, the HC50 in [5] is recorded as >32 >32 µg/mL.
Regarding `OC(Cn1cncn1)(Cn1cncn1)c1ccc(F)cc1F` [Fluconazole, reference compound], the MIC in data set [10] (Candida albicans, ATCC90028) was found to be 0.125 µg/mL (≈ 0.408 µM); in data set [6] (setting [12]), 8 µg/mL (≈ 26.1 µM).
In the case of Colistin [reference compound], the values for the MIC in data set [7], in [8] and in data set [9] were 0.25 µg/mL, 0.125 µg/mL and 0.25 µg/mL, respectively.
`CC(=O)O[C@H]1C[C@@]2(C)[C@H](C[C@@H](O)[C@@H]3[C@@]4(C)CC[C@H](NC(=O)c5cnccn5)[C@@H](C)C4CC[C@@]32C)/C1=C(\CCC=C(C)C)C(=O)O` (stereo partly drawn) [Compound 3, (2Z)-2-{(3β,4α,8α,11α,14β,16β)-16-(acetyloxy)-11-hydroxy-4,8,10,14-tetramethyl-3-[(pyrazin-2-ylcarbonyl)amino]gonan-17-ylidene}-6-methylhept-5-enoic acid]: the melting point lay in the range of 162 to 164 °C. In data set [1], the MIC was ≤0.25 ≤0.25 µg/mL and the “primary screening: antimicrobial activity” value is on record as “showed antimicrobial activity”. Besides, the MIC in data set [1] (setting [11]) amounted to 0.25 µg/mL (≈ 0.402 µM). The CC50 at 20 h in data set [2] was > 32 µg/mL. Also, the CC50 in data set [3] is recorded as >32 >32 µg/mL. The hemolysis at 1 h in data set [4] was 2.2%. In [5], the “Dmax (maximal percentage of hemolysis)” value is reported as 1.4% and the HC50 is reported as >32 >32 µg/mL.
As for `CC(=O)O[C@H]1C[C@@]2(C)[C@@H](C[C@@H](O)[C@H]3[C@@]4(C)CC[C@H](NCCCNCCCCN)[C@@H](C)[C@@H]4CC[C@@]32C)/C1=C(\CCC=C(C)C)C(=O)O` [Compound 19], the MIC in [7] is >32 >32 µg/mL; in [7] (setting [13]), > 32 µg/mL; in data set [8], >32 >32 µg/mL; in [8] (setting [14]), > 32 µg/mL; in [9], >32 >32 µg/mL; in [9] (setting [15]) it was > 32 µg/mL. In addition, the MIC in data set [1] was 32 µg/mL (≈ 49.7 µM); in data set [10] (setting [16]), >32 >32 µg/mL; in [10] (setting [17]) it was > 32 µg/mL. Also, the cytotoxic concentration (CC50) at 20 h in [2] was > 32 µg/mL. The CC50 in data set [3] is on record as >32 >32 µg/mL. The molecule further gave a hemolysis at 1 h in data set [4] of 5.5%. The “Dmax (maximal percentage of hemolysis)” value in [5] turned out to be 5.3%. Further, in data set [5], the HC50 was >32 >32 µg/mL.
